Values joined by “and” are separate entries in the source; they are usually repeats but may differ in a detail not shown here. Equal entries are not always repeated.
Columns and labels:
[1] = xn = mol fraction of the nth substance listed; details: 101 kPa, Liquid
[2] = Liquid; for speed of sound: Sing-around technique in a fixed-path interferometer

CCCOCCO [2-propoxyethanol] + CCCCOCCCC
[1]
Details	mass density
293.15 K, x1 = 0.0625	774.485 kg/m3
293.15 K, x1 = 0.1231	780.612 kg/m3
293.15 K, x1 = 0.1827	786.927 kg/m3
293.15 K, x1 = 0.2394	793.199 kg/m3
293.15 K, x1 = 0.2492	794.319 kg/m3
293.15 K, x1 = 0.2944	799.55 kg/m3
293.15 K, x1 = 0.2949	799.613 kg/m3
293.15 K, x1 = 0.3486	806.069 kg/m3
293.15 K, x1 = 0.4023	812.805 kg/m3
293.15 K, x1 = 0.4544	819.603 kg/m3
293.15 K, x1 = 0.4567	819.921 kg/m3
293.15 K, x1 = 0.5556	833.65 kg/m3
293.15 K, x1 = 0.599	840.02 kg/m3
293.15 K, x1 = 0.6019	840.448 kg/m3
293.15 K, x1 = 0.6498	847.778 kg/m3
293.15 K, x1 = 0.6536	848.363 kg/m3
293.15 K, x1 = 0.7431	862.909 kg/m3
293.15 K, x1 = 0.8304	878.188 kg/m3
293.15 K, x1 = 0.8329	878.643 kg/m3
293.15 K, x1 = 0.875	886.46 kg/m3
293.15 K, x1 = 0.9173	894.637 kg/m3
293.15 K, x1 = 0.9567	902.506 kg/m3
293.15 K, x1 = 0.9568	902.528 kg/m3
298.15 K, x1 = 0.0551	769.407 kg/m3
298.15 K, x1 = 0.0626	770.132 kg/m3
298.15 K, x1 = 0.1039	774.248 kg/m3
298.15 K, x1 = 0.1246	776.381 kg/m3
298.15 K, x1 = 0.1556	779.622 kg/m3
298.15 K, x1 = 0.2367	788.484 kg/m3
298.15 K, x1 = 0.2393	788.779 kg/m3
298.15 K, x1 = 0.2922	794.872 kg/m3
298.15 K, x1 = 0.3545	802.367 kg/m3
298.15 K, x1 = 0.4014	808.252 kg/m3
298.15 K, x1 = 0.4031	808.491 kg/m3
298.15 K, x1 = 0.455	815.247 kg/m3
298.15 K, x1 = 0.5006	821.438 kg/m3
298.15 K, x1 = 0.5043	821.944 kg/m3
298.15 K, x1 = 0.5521	828.692 kg/m3
298.15 K, x1 = 0.6483	843.112 kg/m3
298.15 K, x1 = 0.6976	850.944 kg/m3
298.15 K, x1 = 0.6984	851.074 kg/m3
298.15 K, x1 = 0.6993	851.218 kg/m3
298.15 K, x1 = 0.7502	859.679 kg/m3
298.15 K, x1 = 0.7902	866.584 kg/m3
298.15 K, x1 = 0.8325	874.153 kg/m3 and 874.166 kg/m3
298.15 K, x1 = 0.9152	889.815 kg/m3
298.15 K, x1 = 0.9163	890.027 kg/m3
298.15 K, x1 = 0.9571	898.214 kg/m3
298.15 K, x1 = 0.9581	898.407 kg/m3
303.15 K, x1 = 0.0645	765.959 kg/m3
303.15 K, x1 = 0.1249	772.015 kg/m3
303.15 K, x1 = 0.1826	778.083 kg/m3
303.15 K, x1 = 0.2383	784.22 kg/m3 and 784.216 kg/m3
303.15 K, x1 = 0.3481	797.121 kg/m3
303.15 K, x1 = 0.4032	804.021 kg/m3
303.15 K, x1 = 0.4542	810.67 kg/m3
303.15 K, x1 = 0.4567	810.994 kg/m3
303.15 K, x1 = 0.5058	817.67 kg/m3
303.15 K, x1 = 0.5547	824.595 kg/m3
303.15 K, x1 = 0.5548	824.612 kg/m3
303.15 K, x1 = 0.5997	831.213 kg/m3
303.15 K, x1 = 0.6542	839.567 kg/m3
303.15 K, x1 = 0.6988	846.673 kg/m3
303.15 K, x1 = 0.7434	854.06 kg/m3
303.15 K, x1 = 0.7899	862.072 kg/m3
303.15 K, x1 = 0.8319	869.613 kg/m3
303.15 K, x1 = 0.8764	877.879 kg/m3
303.15 K, x1 = 0.9168	885.687 kg/m3 and 885.692 kg/m3
303.15 K, x1 = 0.9553	893.42 kg/m3
303.15 K, x1 = 0.9575	893.858 kg/m3

COCCOCCO [2-(2-methoxyethoxy)ethanol]
[2]
Details	mass density [kg/m3]	speed of sound [m/s]
293.15 K	1019.81	1432.4
298.15 K	1015.41	1415.2
303.15 K	1010.91	1397.9

CCOCCO [2-ethoxyethan-1-ol]
[2]
Details	mass density [kg/m3]	speed of sound [m/s]
293.15 K	929.545	1319.9
298.15 K	925.027	1301.7
303.15 K	920.457	1284.2

CCCCOCCO [2-butoxyethan-1-ol]
[2]
Details	mass density [kg/m3]	speed of sound [m/s]
293.15 K	900.094	1322.5
298.15 K	895.91	1304.9
303.15 K	891.697	1288

CCOCCO [2-ethoxyethan-1-ol] + COCCO
[1]
Details	mass density [kg/m3]
293.15 K, x2 = 0.1511	933.958
293.15 K, x2 = 0.2029	935.531
293.15 K, x2 = 0.3043	938.709
293.15 K, x2 = 0.3503	940.193
293.15 K, x2 = 0.5024	945.313
293.15 K, x2 = 0.5514	947.031
293.15 K, x2 = 0.6992	952.448
293.15 K, x2 = 0.7482	954.326
293.15 K, x2 = 0.798	956.272
293.15 K, x2 = 0.7992	956.321
293.15 K, x2 = 0.8504	958.373
293.15 K, x2 = 0.8997	960.393
293.15 K, x2 = 0.9488	962.456
298.15 K, x2 = 0.0536	926.563
298.15 K, x2 = 0.1039	928.032
298.15 K, x2 = 0.151	929.431
298.15 K, x2 = 0.1517	929.455
298.15 K, x2 = 0.3523	935.724
298.15 K, x2 = 0.3757	936.488
298.15 K, x2 = 0.4166	937.846
298.15 K, x2 = 0.4509	939.002
298.15 K, x2 = 0.5507	942.46
298.15 K, x2 = 0.5981	944.155
298.15 K, x2 = 0.7494	949.818
298.15 K, x2 = 0.7987	951.747
298.15 K, x2 = 0.8423	953.488
298.15 K, x2 = 0.8475	953.698
298.15 K, x2 = 0.9002	955.855
298.15 K, x2 = 0.9483	957.869
303.15 K, x2 = 0.1537	924.945
303.15 K, x2 = 0.1543	924.961
303.15 K, x2 = 0.2017	926.398
303.15 K, x2 = 0.2495	927.868
303.15 K, x2 = 0.3013	929.498
303.15 K, x2 = 0.402	932.768
303.15 K, x2 = 0.4505	934.39
303.15 K, x2 = 0.4985	936.037
303.15 K, x2 = 0.5505	937.856
303.15 K, x2 = 0.5979	939.553
303.15 K, x2 = 0.6504	941.473
303.15 K, x2 = 0.6979	943.248
303.15 K, x2 = 0.7488	945.193
303.15 K, x2 = 0.7998	947.188
303.15 K, x2 = 0.9001	951.244

Reference: the NIST ThermoML archive (doi:10.1021/je8000975)
